Measured values published in US20110288142A1, “CRYSTALLINE N--5-chloro-4-(4-chloro-1-methyl-1H-pyrazol-5-yl)-2-thiophenecarboxamide hydrochloride” (priority 2009, published 2011).

Experiments:
[1] = Chemical stability of solid form; format: physicochemical; conditions: compared with free acid and other salt forms, including the amorphous hydrochloride form
[2] = Hygroscopicity, moisture sorption on VTI instrument SGA 100; conditions: for level of hygroscopicity / weight increase of the compound (moisture): 25 °C; for hygroscopicity of the solid form (general statement): hydrochloride
Description: There were 24 Relative Humidity steps used. The Relative Humidity at each step is as follows.

[3] = Solubility in bio-relevant media; format: physicochemical

SMILES	chemical stability [1]	level of hygroscopicity ([2]; crystalline form, no drying, 24 relative humidity steps)	weight increase of the compound (moisture) ([2]; crystalline form, no drying, 24 relative humidity steps, 5 to 90)	hygroscopicity of the solid form (general statement) [2]	solubility in bio-relevant media [3]	level of hygroscopicity ([2]; amorphous form, dried at 60 °C, 19 relative humidity steps)	weight increase of the compound (moisture) ([2]; amorphous form, dried at 60 °C, 19 relative humidity steps, 0 to 90)
Cl.Cn1ncc(Cl)c1-c1cc(C(=O)N[C@H](CN)Cc2cccc(F)c2)sc1Cl [Compound A]	improved chemical stability	low level of hygroscopicity	less than 1 % w/w	non-hygroscopic	good solubility	–	–
Cl.Cn1ncc(Cl)c1-c1cc(C(=O)N[C@H](CN)Cc2cccc(F)c2)sc1Cl [Example 3]	–	–	–	hygroscopic	–	high level of hygroscopicity	more than 18 % w/w
